Results reported in patent publication US11117900B2 (Vertex Pharmaceuticals Incorporated, priority 2012, dated 2021).

What follows are compounds tested on HCT116 colorectal cancer cells (assay: Cisplatin sensitization assay (96 h MTS cell viability)). Settings: Cisplatin sensitization value.
Format: cell-based
In short: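 HCT116 cells were dosed simultaneously with compound and cisplatin as a full matrix of 2-fold serial dilutions from 10 μM top final concentration. Incubation was 96 h at 37° C., 5% CO2, followed by 1 h with MTS reagent for the viability read-out. Sensitization values were binned into +++, ++ and + categories.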
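Further: compound concentration needed to lower the IC50 of Cisplatin alone by a set fold.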

Compound | Cisplatin Sensitization Assay
CN1CCC[C@@H]1C(=O)N1CCN(c2ccncc2NC(=O)c2c(N)nn3cc(F)cnc23)CC1 [I-N-199, (R)-2-amino-6-fluoro-N-(4-(4-(1-methylpyrrolidine-2-carbonyl)piperazin-1-yl)pyridin-3-yl)pyrazolo[1,5-a]pyrimidine-3-carboxamide] | +++ (Compounds with a Cisplatin sensitization value of <0.02 μM are marked with “+++.”)
Nc1nn2cc(F)cnc2c1C(=O)Nc1cnccc1N1CCC(S(=O)(=O)C2COC2)CC1 [I-N-200, 2-amino-6-fluoro-N-(4-(4-(oxetan-3-ylsulfonyl)piperidin-1-yl)pyridin-3-yl)pyrazolo[1,5-a]pyrimidine-3-carboxamide] | +++ (Compounds with a Cisplatin sensitization value of <0.02 μM are marked with “+++.”)
Nc1nn2cc(F)cnc2c1C(=O)Nc1cncc(F)c1N1CCN(S(=O)(=O)C2COC2)CC1 [I-N-201] | +++ (Compounds with a Cisplatin sensitization value of <0.02 μM are marked with “+++.”)
Nc1nn2cc(F)cnc2c1C(=O)Nc1cncc(F)c1N1CCN(C(=O)C2CC3CCCCN3C2)CC1 (centres unmarked) [I-N-203, 2-amino-6-fluoro-N-(5-fluoro-4-(4-(octahydroindolizine-2-carbonyl)piperazin-1-yl)pyridin-3-yl)pyrazolo[1,5-a]pyrimidine-3-carboxamide] | +++ (Compounds with a Cisplatin sensitization value of <0.02 μM are marked with “+++.”)
CC(C)N1CCCC1C(=O)N1CCN(c2c(F)cncc2NC(=O)c2c(N)nn3cc(F)cnc23)CC1 (centres unmarked) [I-N-205, 2-amino-6-fluoro-N-(5-fluoro-4-(4-(1-isopropylpyrrolidine-2-carbonyl)piperazin-1-yl)pyridin-3-yl)pyrazolo[1,5-a]pyrimidine-3-carboxamide] | ++ (Compounds with a Cisplatin sensitization value >0.02 μM but <0.2 μM are marked with “++.”)
CC(C)N1CCC(C(=O)N2CCN(c3c(F)cncc3NC(=O)c3c(N)nn4cc(F)cnc34)CC2)C1 (centres unmarked) [I-N-206, 2-amino-6-fluoro-N-(5-fluoro-4-(4-(1-isopropylpyrrolidine-3-carbonyl)piperazin-1-yl)pyridin-3-yl)pyrazolo[1,5-a]pyrimidine-3-carboxamide] | +++ (Compounds with a Cisplatin sensitization value of <0.02 μM are marked with “+++.”)
COCCS(=O)(=O)C1CCN(c2ccncc2NC(=O)c2c(N)nn3cc(F)cnc23)CC1 [I-N-208, 2-amino-6-fluoro-N-(4-(4-((2-methoxyethyl)sulfonyl)piperidin-1-yl)pyridin-3-yl)pyrazolo[1,5-a]pyrimidine-3-carboxamide] | +++ (Compounds with a Cisplatin sensitization value of <0.02 μM are marked with “+++.”)
CN1CCN(c2ccncc2NC(=O)c2c(N)nn3cc(F)cnc23)CC1=O [I-N-209, 2-amino-6-fluoro-N-(4-(4-methyl-3-oxopiperazin-1-yl)pyridin-3-yl)pyrazolo[1,5-a]pyrimidine-3-carboxamide] | +++ (Compounds with a Cisplatin sensitization value of <0.02 μM are marked with “+++.”)
Nc1nn2cc(F)cnc2c1C(=O)Nc1cnccc1N1CCS(=O)(=O)CC1 [I-N-210, 2-amino-N-(4-(1,1-dioxidothiomorpholino)pyridin-3-yl)-6-fluoropyrazolo[1,5-a]pyrimidine-3-carboxamide] | +++ (Compounds with a Cisplatin sensitization value of <0.02 μM are marked with “+++.”)
Nc1nn2cc(F)cnc2c1C(=O)Nc1cncc(F)c1N1CCN(C(=O)C2CCN(C3COC3)CC2)CC1 [I-N-211, 2-amino-6-fluoro-N-(5-fluoro-4-(4-(1-(oxetan-3-yl)piperidine-4-carbonyl)piperazin-1-yl)pyridin-3-yl)pyrazolo[1,5-a]pyrimidine-3-carboxamide] | ++ (Compounds with a Cisplatin sensitization value >0.02 μM but <0.2 μM are marked with “++.”)
CN1CCN(c2c(F)cncc2NC(=O)c2c(N)nn3cc(F)cnc23)CC1=O [I-N-212, 2-amino-6-fluoro-N-(5-fluoro-4-(4-methyl-3-oxopiperazin-1-yl)pyridin-3-yl)pyrazolo[1,5-a]pyrimidine-3-carboxamide] | +++ (Compounds with a Cisplatin sensitization value of <0.02 μM are marked with “+++.”)
Nc1nn2cc(F)cnc2c1C(=O)Nc1cncc(F)c1N1CCC(CN2CCCC2=O)CC1 [I-N-213, 2-amino-6-fluoro-N-(5-fluoro-4-(4-((2-oxopyrrolidin-1-yl)methyl)piperidin-1-yl)pyridin-3-yl)pyrazolo[1,5-a]pyrimidine-3-carboxamide] | +++ (Compounds with a Cisplatin sensitization value of <0.02 μM are marked with “+++.”)
CN1CCCCC1C(=O)N1CCN(c2c(F)cncc2NC(=O)c2c(N)nn3cc(F)cnc23)CC1 (centres unmarked) [I-N-214, 2-amino-6-fluoro-N-(5-fluoro-4-(4-(1-methylpiperidine-2-carbonyl)piperazin-1-yl)pyridin-3-yl)pyrazolo[1,5-a]pyrimidine-3-carboxamide] | ++ (Compounds with a Cisplatin sensitization value >0.02 μM but <0.2 μM are marked with “++.”)
CS(=O)(=O)CC1CCN(c2ccncc2NC(=O)c2c(N)nn3cc(F)cnc23)CC1 [I-N-215, 2-amino-6-fluoro-N-(4-(4-((methylsulfonyl)methyl)piperidin-1-yl)pyridin-3-yl)pyrazolo[1,5-a]pyrimidine-3-carboxamide] | +++ (Compounds with a Cisplatin sensitization value of <0.02 μM are marked with “+++.”)
CN1CC2(CCN(c3ccncc3NC(=O)c3c(N)nn4cc(F)cnc34)CC2)OC1=O [I-N-216, 2-amino-6-fluoro-N-(4-(3-methyl-2-oxo-1-oxa-3,8-diazaspiro[4.5]decan-8-yl)pyridin-3-yl)pyrazolo[1,5-a]pyrimidine-3-carboxamide] | +++ (Compounds with a Cisplatin sensitization value of <0.02 μM are marked with “+++.”)
Nc1nn2cc(F)cnc2c1C(=O)Nc1cnccc1N1CCN2C(=O)CC[C@H]2C1 [I-N-217, (S)-2-amino-6-fluoro-N-(4-(6-oxohexahydropyrrolo[1,2-a]pyrazin-2(1H)-yl)pyridin-3-yl)pyrazolo[1,5-a]pyrimidine-3-carboxamide] | ++ (Compounds with a Cisplatin sensitization value >0.02 μM but <0.2 μM are marked with “++.”)
Cc1nc(C)n(-c2ccncc2NC(=O)c2c(N)nn3cc(F)cnc23)n1 [I-N-218, 2-amino-N-(4-(3,5-dimethyl-1H-1,2,4-triazol-1-yl)pyridin-3-yl)-6-fluoropyrazolo[1,5-a]pyrimidine-3-carboxamide] | + (Compounds with a Cisplatin sensitization value >0.2 μM but <5 μM are marked with “+.”)
Nc1nn2cc(F)cnc2c1C(=O)Nc1cnccc1-n1ccnc1C(F)(F)F [I-N-219, 2-amino-6-fluoro-N-(4-(2-(trifluoromethyl)-1H-imidazol-1-yl)pyridin-3-yl)pyrazolo[1,5-a]pyrimidine-3-carboxamide] | +++ (Compounds with a Cisplatin sensitization value of <0.02 μM are marked with “+++.”)
CC1(C)CCCN1c1ccncc1NC(=O)c1c(N)nn2cc(F)cnc12 [I-N-220, 2-amino-N-(4-(2,2-dimethylpyrrolidin-1-yl)pyridin-3-yl)-6-fluoropyrazolo[1,5-a]pyrimidine-3-carboxamide] | ++ (Compounds with a Cisplatin sensitization value >0.02 μM but <0.2 μM are marked with “++.”)
CS(=O)(=O)C1CCCN(c2ccncc2NC(=O)c2c(N)nn3cc(F)cnc23)C1 (centres unmarked) [I-N-221, 2-amino-6-fluoro-N-(4-(3-(methylsulfonyl)piperidin-1-yl)pyridin-3-yl)pyrazolo[1,5-a]pyrimidine-3-carboxamide] | ++ (Compounds with a Cisplatin sensitization value >0.02 μM but <0.2 μM are marked with “++.”)
Nc1nn2cc(F)cnc2c1C(=O)Nc1cnccc1N1CC(=O)N2CCCC2C1 (centres unmarked) [I-N-222, 2-amino-6-fluoro-N-(4-(4-oxohexahydropyrrolo[1,2-a]pyrazin-2(1H)-yl)pyridin-3-yl)pyrazolo[1,5-a]pyrimidine-3-carboxamide] | ++ (Compounds with a Cisplatin sensitization value >0.02 μM but <0.2 μM are marked with “++.”)
Cc1ccnn1-c1ccncc1NC(=O)c1c(N)nn2cc(F)cnc12 [I-N-223, 2-amino-6-fluoro-N-(4-(5-methyl-1H-pyrazol-1-yl)pyridin-3-yl)pyrazolo[1,5-a]pyrimidine-3-carboxamide] | ++ (Compounds with a Cisplatin sensitization value >0.02 μM but <0.2 μM are marked with “++.”)
CN1C[C@@H]2CCN(c3ccncc3NC(=O)c3c(N)nn4cc(F)cnc34)C[C@@H]2C1=O [I-N-224, 2-amino-6-fluoro-N-(4-((3aR,7aR)-2-methyl-3-oxohexahydro-1H-pyrrolo[3,4-c]pyridin-5(6H)-yl)pyridin-3-yl)pyrazolo[1,5-a]pyrimidine-3-carboxamide] | + (Compounds with a Cisplatin sensitization value >0.2 μM but <5 μM are marked with “+.”)
Cc1ccn(-c2ccncc2NC(=O)c2c(N)nn3cc(F)cnc23)n1 [I-N-225, 2-amino-6-fluoro-N-(4-(3-methyl-1H-pyrazol-1-yl)pyridin-3-yl)pyrazolo[1,5-a]pyrimidine-3-carboxamide] | ++ (Compounds with a Cisplatin sensitization value >0.02 μM but <0.2 μM are marked with “++.”)
Nc1nn2cc(F)cnc2c1C(=O)Nc1cnccc1N1CCC2(CC1)COC2 [I-N-226, N-(4-(2-oxa-7-azaspiro[3.5]nonan-7-yl)pyridin-3-yl)-2-amino-6-fluoropyrazolo[1,5-a]pyrimidine-3-carboxamide] | +++ (Compounds with a Cisplatin sensitization value of <0.02 μM are marked with “+++.”)
CN1CCOCC1C(=O)N1CCN(c2c(F)cncc2NC(=O)c2c(N)nn3cc(F)cnc23)CC1 (centres unmarked) [I-N-227, 2-amino-6-fluoro-N-(5-fluoro-4-(4-(4-methylmorpholine-3-carbonyl)piperazin-1-yl)pyridin-3-yl)pyrazolo[1,5-a]pyrimidine-3-carboxamide] | +++ (Compounds with a Cisplatin sensitization value of <0.02 μM are marked with “+++.”)
